# Source: patent US20110002843A1, “METHOD OF DETECTING MYOCARDIAL DYSFUNCTION IN PATIENTS HAVING A HISTORY OF ASTHMA OR BRONCHOSPASM” (priority 2005, published 2011)
# pEC50: −log10 of the molar value.
# Key:
# A1 adenosine receptor = molecular target: T1, A1 adenosine receptor (Cavia porcellus, UniProt P47745); parameters: a Langendorff guinea pig heart preparation; from tissue; host or cells: isolated perfused guinea pig heart (Langendorff); details: heart paced at 260 beats/min; data of U.S. Pat. No. 5,278,150; read-out: EC50—SQPR (A1); cited from earlier work
# T1 sequence (P47745 1-326): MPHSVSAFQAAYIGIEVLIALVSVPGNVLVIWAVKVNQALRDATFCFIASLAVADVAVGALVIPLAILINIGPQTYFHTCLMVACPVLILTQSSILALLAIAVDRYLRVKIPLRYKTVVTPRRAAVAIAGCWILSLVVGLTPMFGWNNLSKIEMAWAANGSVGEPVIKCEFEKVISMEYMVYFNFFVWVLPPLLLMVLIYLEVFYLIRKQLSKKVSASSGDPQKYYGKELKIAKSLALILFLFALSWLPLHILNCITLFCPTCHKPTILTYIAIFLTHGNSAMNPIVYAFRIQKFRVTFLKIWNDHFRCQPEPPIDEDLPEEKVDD
# A2A adenosine receptor [1] = molecular target: T2, A2A adenosine receptor (Cavia porcellus, UniProt P46616); assay: Langendorff guinea pig heart preparation, coronary vasodilation (coronary flow); details: quotient EC50-SQPR / EC50-CF
# T2 sequence (P46616 whole entry, the tested form may be a part): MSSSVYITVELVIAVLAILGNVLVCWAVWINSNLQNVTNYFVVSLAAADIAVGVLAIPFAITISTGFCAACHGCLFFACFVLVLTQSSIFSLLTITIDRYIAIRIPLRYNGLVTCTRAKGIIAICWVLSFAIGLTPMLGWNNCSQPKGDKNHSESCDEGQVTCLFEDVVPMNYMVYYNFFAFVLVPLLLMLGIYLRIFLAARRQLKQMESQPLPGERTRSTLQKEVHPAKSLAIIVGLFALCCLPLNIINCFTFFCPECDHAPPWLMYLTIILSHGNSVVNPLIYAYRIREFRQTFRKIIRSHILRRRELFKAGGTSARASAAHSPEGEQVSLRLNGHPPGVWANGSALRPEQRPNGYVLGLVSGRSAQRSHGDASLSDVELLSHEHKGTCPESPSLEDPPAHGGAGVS
# Procedure: The A1/A2A selectivity in Table 1 was calculated as the quotient of the EC50 of stimulus-QRS prolongation divided by the EC50 of coronary vasodilation.
# A2A adenosine receptor [2] = molecular target: T2, A2A adenosine receptor; parameters: a Langendorff guinea pig heart preparation; from tissue; host or cells: isolated perfused guinea pig heart (Langendorff), coronary vasculature; details: heart paced at 260 beats/min; data of U.S. Pat. No. 5,278,150; read-out: EC50—CF (A2A); cited from earlier work
# [3] = Dose-selection study of coronary hyperemia (CBFV by Doppler guide wire) in non-asthmatic patients at cardiac catheterization; details: intracoronary bolus injections before binodenoson
# Procedure: Coronary blood flow velocity reserve (CBFVR) was established by intracoronary (IC) bolus injections of adenosine just prior to administration of binodenoson to allow a direct comparison of the magnitude of responses.
# Patients presenting for cardiac catheterization were screened for eligibility and provided informed consent prior to sedation. Final eligibility was determined by the investigator during diagnostic catheterization.
# Following completion of the diagnostic catheterization procedure and confirmation of all eligibility criteria, the Doppler guide wire was introduced into an accessible coronary artery and manipulated until a stable signal was obtained.
# Drug administration: All usual catheterization procedural medications including IC nitroglycerin, heparin, anxiolytics and analgesics, were allowed. […] Binodenoson doses were then introduced into a peripheral vein via an indwelling catheter.
# Measurements: Coronary blood flow velocity (CBFV) was measured as continuous pulsatile (systolic and diastolic) velocity (cm/sec) with the Doppler guide wire introduced via a guiding catheter. HR was derived from the ECG signal. SBP and diastolic blood pressure (DBP) were recorded directly from the catheter sheath. For each IC adenosine injection, CBFVR was calculated by dividing the peak post-injection CBFV value by the respective baseline CBFV value. Each patient's maximal calculated CBFVR was used as a benchmark to which CBFV responses to binodenoson were compared. For each binodenoson dose, baseline CBFV (post-IC adenosine), peak CBFV, time following dose start time to achieve peak CBFV and percents of CBFVR (calculated as the ratio of CBFV change from baseline following binodenoson administration vs CBFVR) at each point were calculated. Rate pressure product (RPP) and coronary vascular resistance (CVR) were derived at each time point (see formulas in Table 10). […] Vital signs were measured again approximately 3 to 4 hours after dosing or prior to hospital discharge. Patients returned for a follow-up visit 2 to 4 days following catheterization that included vital signs, an abbreviated physical examination, a 12-lead ECG, blood chemistry and hematology assessments and an assessment of any late-emerging adverse events.
# Adverse events were monitored throughout the study.
# Statistical analyses: All pharmacodynamic and safety data were analyzed using the intent-to-treat (ITT) population, which included all patients who received any amount of study drug. A paired t test was used to assess the significance of within-treatment differences (peak vs baseline) in CBFV, vital signs and calculated CVR and RPP; repeated comparisons were corrected using the Bonferroni-Holm method. The statistical significance of differences among treatment groups was evaluated using an analysis of variance (ANOVA) model that included treatment and investigator interactions.
A1/A2A Selectivity (A2A adenosine receptor [1]),SMILES,pEC50 (A1 adenosine receptor),pEC50 (A2A adenosine receptor [2]),also measured
,"Nc1nc(N/N=C/C2CC=CCC2)nc2c1ncn2[C@@H]1O[C@H](CO)[C@@H](O)[C@H]1O (stereo in doubt) [B, 2-{2-[(Cyclohex-3-enyl)methylene]hydrazino}adenosine]",4.86,,
"36,300","Nc1nc(N/N=C/c2ccccc2)nc2c1ncn2[C@@H]1O[C@H](CO)[C@@H](O)[C@H]1O (stereo in doubt) [I, 2-[2-(Benzylidene) hydrazino]adenosine]",4.08,8.64,
"44,700","CC(C)CCC=NNc1nc(N)c2ncn([C@@H]3O[C@H](CO)[C@@H](O)[C@H]3O)c2n1 [C, 2-[2-(4-methylpentylidene)hydrazino]adenosine]",,,
,"Nc1ncnc2c1ncn2[C@@H]1O[C@H](CO)[C@@H](O)[C@H]1O [Compare A, Adenosine, reference compound]",,,"effect on CBFV [3]: transient increases; effects on SBP, DBP, or HR [3]: no consistent effects"
50,"Nc1nc(N)c2ncn([C@@H]3O[C@H](CO)[C@@H](O)[C@H]3O)c2n1 [Compare B, 2-Amino-adenosine, reference compound]",,6.66,
250,"NNc1nc(N)c2ncn([C@@H]3O[C@H](CO)[C@@H](O)[C@H]3O)c2n1 [Compare C, 2-Hydrazino-adenosine, reference compound]",,,
,"CCCCC(CC)CC=NNc1nc(N)c2ncn([C@@H]3O[C@H](CO)[C@@H](O)[C@H]3O)c2n1 (some centres unmarked) [D, 2-[2-(3-ethylheptylidene)hydrazino]adenosine]",5.01,,
"38,000","CCCCCC=NNc1nc(N)c2ncn([C@@H]3O[C@H](CO)[C@@H](O)[C@H]3O)c2n1 [E, 2-[2-(hexylidene)hydrazino]adenosine]",,,
"37,200","CCCC(CCC)CCC=NNc1nc(N)c2ncn([C@@H]3O[C@H](CO)[C@@H](O)[C@H]3O)c2n1 [G, 2-[2-(4-propylheptylidene)hydrazino]adenosine]",4.18,8.75,
"5,100","Nc1nc(NN=Cc2ccc(F)cc2)nc2c1ncn2[C@@H]1O[C@H](CO)[C@@H](O)[C@H]1O [J, 2-[2-(4-Fluorobenzylidene) hydrazino]adenosine]",,,
,"Cc1ccc(C=NNc2nc(N)c3ncn(C4OC(CO)C(O)C4O)c3n2)cc1 (centres unmarked) [K, 2-[2-(4-Methylbenzylidine) hydrazino]adenosine]",4.40,,
"3,800","Cc1cccc(C=NNc2nc(N)c3ncn(C4OC(CO)C(O)C4O)c3n2)c1 (centres unmarked) [L, 2-[2-(3-Methylbenzylidine)hydrazino]adenosine]",4.77,8.36,
